{"source": "patent US20240287123A1", "about": "(Victoria Link Limited, priority 2021, published 2024)", "key": {"primary human MDM": {"tested_on": "primary human MDM", "experiment": "Toxicity to MDM: LDH assay and light microscopy", "type": "cell-based", "experimental": "Light microscopy was used to image MDMs on day 7 of infection. […] Colorimetric LDH assays were also performed on culture supernatants from these same cells on day 4 of infection to assess cell death.\nAt the end of each experiment, cells were imaged by light microscopy. After aspirating off media, cells were washed with PBS, and lysates were harvested in extraction buffer containing 0.1% Formic acid, 50% ACN, 40% MeOH, 10% H2O.\nDrug toxicity was analyzed using an LDH assay kit according to manufacturer's instructions (Abcam #ab65393, Toronto, Canada). Briefly, supernatants from duplicate plates per treatment condition were added to a 96-well plate. Each supernatant was run in triplicate. Provided assay buffer was added to culture supernatants after mixing with a substrate solution that turns orange upon lactate exposure. After incubation for 30-45 min, colorimetric signal was quantified an OD of 450 nm. LDH was a positive control as well as cells lysed with 10% lysis buffer in media representing the “high control” to which % cytotoxicity was measured. The reference sample was either control uninfected cells treated with DMSO or negative control HIV-infected cells treated with DMSO. Culture media alone was used as a technical negative control. This background signal that was subtracted from all test wells."}, "[1]": {"experiment": "Cytotoxicity in Akata cells (CTG), concurrent with EBV assay", "type": "cell-based", "conditions": "human, Table 1", "experimental": "(§1) Each experiment that evaluates the antiviral activity of compounds includes both positive and negative control compounds to ensure the performance of each assay. Concurrent assessment of cytotoxicity was also performed for each study in the same cell line and with the same compound exposure.\nAssays for EBV were performed by reported methods.^37 Akata cells were induced to undergo a lytic infection with 50 μg/ml of a goat anti-human IgG antibody. Experimental compounds were diluted within plates. The cells were added and incubated for 72 h. Similar plates were initiated without virus induction/addition and used for measuring cytotoxicity by the addition of CTG. For all assays, the replication of the virus was assessed by the quantification of viral DNA. […] Compound concentrations sufficient to reduce genome copy number by 50% were calculated from experimental data as well as compound cytotoxicity."}, "EBV (Akata/Akata)": {"tested_on": "EBV (Akata/Akata)", "experiment": "EBV assay: viral DNA quantification in induced Akata cells", "type": "cell-based, Epstein-Barr virus", "conditions": "for activity against EBV: cell-based assay, highest concentration tested in primary assays 50 μM", "experimental": "(§2) Akata cells were obtained from Louisiana State University, Baton Rouge, LA. The HCMV strain AD169 was obtained from the American Type Culture Collection (ATCC, Manassas, VA). Akata cells latently infected with EBV were obtained from Louisiana State University, Baton Rouge, LA.\nas §1\nAssays for EBV were performed by reported methods.^37 Akata cells were induced to undergo a lytic infection with 50 μg/ml of a goat anti-human IgG antibody. Experimental compounds were diluted within plates. The cells were added and incubated for 72 h. Similar plates were initiated without virus induction/addition and used for measuring cytotoxicity by the addition of CTG. For all assays, the replication of the virus was assessed by the quantification of viral DNA. For EBV, primers 5′-[…]-3′ and 5′-CAG TTC CTC GCCTTAGGTTG-3 amplified a fragment corresponding to coordinates 96802-97234 in EBV genome (AJ507799). Compound concentrations sufficient to reduce genome copy number by 50% were calculated from experimental data as well as compound cytotoxicity."}, "HIVADA": {"tested_on": "HIVADA", "experiment": "HIV p24 alphaLISA in infected monocyte derived macrophages", "type": "cell-based, Human Immunodeficiency Virus", "conditions": "for levels of HIV p24 viral capsid protein: 100 μM, infected MDM, days 2-7, compared with DMSO control", "experimental": "Primary human MDMs were cultured from peripheral blood mononuclear cells and pre-treated for 24 h with ddhC (100 μM), compound 8 (100 μM), compound 21 (100 μM), emtricitabine control (15 μM, 10 μM, 1 μM, 0.1 μM), or the drug vehicle, DMSO. MDM were then infected with HIVADA in the presence of these compounds and treated daily (with compound), while culture supernatants were collected to quantify levels of HIV p24, a viral capsid protein, on days 2-7 of infection.\nLeukopaks from healthy donors were obtained from the New York Blood Center and processed by Ficoll gradient centrifugation to isolate peripheral blood mononuclear cells (PBMC). These PBMC were cultured adherently into monocyte derived macrophages (MDM), according to published protocols, on 60 mm dishes for 6 days with 10-20 ng/ml macrophage colony stimulating factor (M-CSF). MDM were pre-treated with ddhC, compound 8, compound 21, emtricitabine (Cat. No .: 10071), or DMSO vehicle at indicated concentrations for 24 hours (NIH AIDS Reagent Program, Bethesda, MD). Cells were left uninfected or infected for 24 h in the presence of one of the compounds listed above with 20 ng/mL HIVADA, a macrophage-tropic HIV strain originally derived from a person with HIV (NIH). Media was changed daily with the mentioned compounds added each time, and supernatants were collected on days 2, 3, 4, 5, 6, and 7 of infection. Each treatment condition was analyzed in duplicate plates per experiment.\nSupernatant samples were analyzed for the viral capsid protein, HIV p24, by a sensitive p24 alphaLISA according to the manufacturer's protocol (Perkin-Elmer, Waltham, MA). Treatment conditions were analyzed in duplicate plates, and each supernatant was analyzed in duplicate on a 96-well alphaLISA plate. These were then fit to a sigmoid standard curve to extrapolate HIV p24 levels in pg/mL within the assay limits of detection."}, "[2]": {"tested_on": "HCMV (AD169 strain in HFF cells)", "experiment": "CPE (cytopathic effect) assay for HCMV", "type": "cell-based, Human Cytomegalovirus", "experimental": "(§3) Human foreskin fibroblast (HFF) cells prepared from human foreskin tissue were obtained from the University of Alabama at Birmingham tissue procurement facility with approval from its IRB. The tissue was incubated at 4° C. for 4 h in Clinical Medium consisting of minimum essential media (MEM) with Earl's salts supplemented with 10% fetal bovine serum (FBS) (Hyclone, Inc. Logan UT), L-glutamine, fungizone, and vancomycin. Tissue was then placed in phosphate buffered saline (PBS), minced, rinsed to remove the red blood cells, and resuspended in trypsin/EDTA solution. The tissue suspension was incubated at 37° C. and gently agitated to disperse the cells, which were collected by centrifugation. Cells were resuspended in 4 ml Clinical Medium and placed in a 25 cm^2 flask and incubated at 37° C. in a humidified CO2 incubator for 24 h. The media was then replaced with fresh Clinical Medium and the cell growth was monitored daily until a confluent monolayer had formed. The HFF cells were then expanded through serial passages in standard growth medium of MEM with Earl's salts supplemented with 10% FBS, L-glutamine, penicillin, and gentamycin.\nas §2, §1\nAssays were performed in monolayers as described.37 Cells were seeded in 384 well plates and incubated for 24 h to allow the formation of confluent monolayers. Dilutions of test drug were prepared directly in the plates and the monolayers infected at a predetermined MOI based on virus used. After incubation, cytopathology was determined by the addition of CellTiter-Glo (CTG) reagent. […] Toxicity was measured using CTG as above."}, "[3]": {"experiment": "Cytotoxicity in HFF cells (CellTiter-Glo), concurrent with HCMV assay", "type": "cell-based", "conditions": "human", "experimental": "as §3, with “gentamycin. The cells were passaged routinely and used for assays at or below passage ^10.37,38” for “gentamycin.”\nas §1\nAssays were performed in monolayers as described.37 Cells were seeded in 384 well plates and incubated for 24 h to allow the formation of confluent monolayers. Dilutions of test drug were prepared directly in the plates and the monolayers infected at a predetermined MOI based on virus used. After incubation, cytopathology was determined by the addition of CellTiter-Glo (CTG) reagent. Concentrations of test compound sufficient to reduce CPE by 50% (EC50) or decrease cell viability by 50% (CC50) were interpolated using standard methods in Microsoft Excel. Toxicity was measured using CTG as above."}, "Zika virus": {"tested_on": "Zika virus", "conditions": "Vero cells, 1 mM; cited from earlier work"}, "HHV-6B (Z29; MOLT-3)": {"tested_on": "HHV-6B (Z29; MOLT-3)", "experiment": "HHV-6B antiviral assay (Z29; MOLT-3)", "type": "cell-based, human betaherpesvirus 6B", "conditions": "cidofovir (CDV) control, MOLT-3, HHV-6B, control run alongside, read-out: CDV control result (EC50/UM)"}, "[4]": {"conditions": "human gammaherpesvirus 4, Akata, Akata/Akata, Table 1, read-out: EBV EC50"}, "[5]": {"conditions": "human gammaherpesvirus 4, Akata, read-out: Result for compound (EC50/UM), EBV Akata/Akata, assay order Primary"}, "[6]": {"conditions": "human gammaherpesvirus 4, Akata, read-out: EC50 against EBV"}, "[7]": {"conditions": "Akata cells (without virus induction)"}, "[8]": {"conditions": "Human betaherpesvirus 5, AD169 strain in HFF cells, Table 1, read-out: HCMV EC50"}}, "note": "pEC50: −log10 of the molar value. Entries after “also recorded” stand apart in the source; their conditions may differ. Where two headings read alike, the source gives them in different places.", "data": [{"smiles": "CC(C)OC(=O)[C@H](C)N[P@](=O)(OCC1=C[C@@H](O)[C@H](n2ccc(N)nc2=O)O1)Oc1ccccc1", "note": "[Compound 21, 3′-Deoxy-3′,4′-didehydrocytidine-5′-O-[phenyl(isopropoxy-L-alaninyl) ]-Sp-phosphoramidate]", "values": [{"measurement": "LDH activity in HIV-infected MDMs relative to DMSO controls", "setting": "primary human MDM; 100 μM, day 4 of infection", "value": "nearly identical"}, {"measurement": "toxicity to MDMs", "setting": "primary human MDM; 100 uM, visual inspection by light microscopy and colorimetric LDH assays", "value": "non-toxic"}, {"measurement": "CC50 at 72 h", "setting": "[1]", "value": "> 50", "unit": "µM"}, {"measurement": "activity against EBV", "setting": "EBV (Akata/Akata)", "value": "more weakly inhibiting"}, {"measurement": "pEC50", "setting": "EBV (Akata/Akata); [4]", "value": 4.63}, {"measurement": "pEC50", "setting": "EBV (Akata/Akata); [5]", "value": 4.62}, {"measurement": "pEC50", "setting": "EBV (Akata/Akata); [6]", "value": "4.41 to 5.12"}, {"measurement": "levels of HIV p24 viral capsid protein", "setting": "HIVADA", "value": "significantly reduce; also recorded: significantly decreased"}, {"measurement": "impact on HIV replication relative to the DMSO control", "setting": "HIVADA; low doses: compound 8 compound 21 (0.1-1 μM) as printed", "value": "minimal impact"}]}, {"smiles": "Nc1nc(O)c2ncn(COC(CO)CO)c2n1", "note": "[Ganciclovir, ganciclovir, reference compound]", "values": [{"measurement": "pEC50", "setting": "[2]; Human betaherpesvirus 5, AD169, HFF, read-out: HCMV EC50", "value": 6.26}, {"measurement": "CC50", "setting": "[3]; HFF cells, Table 1, read-out: HCMV CC50", "value": "> 150", "unit": "µM"}]}, {"smiles": "Nc1ccn([C@@H]2OC(CO)=C[C@H]2O)c(=O)n1", "note": "[ddhC, 3′-Deoxy-3′,4′-didehydro-cytidine, reference compound]", "values": [{"measurement": "CC50 at 72 h", "setting": "[1]; [7]", "value": "> 50", "unit": "µM"}, {"measurement": "activity against EBV", "setting": "EBV (Akata/Akata)", "value": "five-fold less active than compound 8; also recorded: only weakly inhibited"}, {"measurement": "pEC50", "setting": "EBV (Akata/Akata); [4]", "value": 4.41}, {"measurement": "pEC50", "setting": "EBV (Akata/Akata); [5]", "value": 4.41}, {"measurement": "pEC50", "setting": "EBV (Akata/Akata); [6]", "value": "4.41 to 5.12"}, {"measurement": "antiviral activity against HCMV", "setting": "[2]", "value": "does not display antiviral activity"}, {"measurement": "pEC50", "setting": "[2]; [8]", "value": "< 4.30"}, {"measurement": "Zika virus proliferation", "setting": "Zika virus", "value": "reduce Zika virus proliferation"}, {"measurement": "levels of HIV p24 viral capsid protein", "setting": "HIVADA", "value": "no reduction"}, {"measurement": "CC50", "setting": "[3]", "value": "> 50", "unit": "µM"}]}, {"smiles": "CC(C)C(=O)OCC1=C[C@@H](O)[C@H](n2ccc(NO)nc2=O)O1", "note": "[Compound 10, 3′-Deoxy-3′,4′-didehydro-4-N-hydroxy-5′-O-isobutyroyl-cytidine]", "values": [{"measurement": "CC50 at 72 h", "setting": "[1]; [7]", "value": "> 50", "unit": "µM"}, {"measurement": "activity against EBV", "setting": "EBV (Akata/Akata)", "value": "slightly diminishes the activity"}, {"measurement": "pEC50", "setting": "EBV (Akata/Akata); [4]", "value": 4.52}, {"measurement": "pEC50", "setting": "EBV (Akata/Akata); [5]", "value": 4.52}, {"measurement": "pEC50", "setting": "EBV (Akata/Akata); [6]", "value": "4.41 to 5.12"}, {"measurement": "pEC50", "setting": "[2]; Human betaherpesvirus 5, AD169, HFF, approximate, read-out: EC50 against HCMV", "value": "~7.52"}, {"measurement": "pEC50", "setting": "[2]; [8]", "value": 7.52}, {"measurement": "CC50", "setting": "[3]", "value": "> 50", "unit": "µM"}]}, {"smiles": "Nc1ccn(C[C@@H](CO)OCP(=O)(O)O)c(=O)n1", "note": "[Cidofovir, cidofovir, reference compound]", "values": [{"measurement": "CC50 at 72 h", "setting": "[1]; [7]", "value": "> 100", "unit": "µM"}, {"measurement": "pEC50", "setting": "EBV (Akata/Akata); EBV Akata/Akata, control run alongside, Primary, read-out: CDV control result (EC50/UM)", "value": 5.59}, {"measurement": "pEC50", "setting": "EBV (Akata/Akata); EBV Akata/Akata, control run alongside, Secondary, read-out: CDV control result (EC50/UM)", "value": 5.71}, {"measurement": "pEC50", "setting": "EBV (Akata/Akata); [4]", "value": 5.08}, {"measurement": "pEC50", "setting": "EBV (Akata/Akata); [6]", "value": 5.08}, {"measurement": "pEC50", "setting": "EBV (Akata/Akata); read-out: CDV control result (EC50/UM), EBV Akata/Akata, control run alongside, Secondary", "value": 5.23}, {"measurement": "pEC50", "setting": "HHV-6B (Z29; MOLT-3); Primary", "value": 5.47}, {"measurement": "pEC50", "setting": "HHV-6B (Z29; MOLT-3); Secondary", "value": 5.37}]}]}
